Results: patent publication US4482553A, “Benzothienylglycyl cephalosporin derivatives” (priority 1983, dated 1984)
Like-named read-outs stand apart in the source and are kept apart here.

How the values were obtained:
Type in all cases: cell-based
Klebsiella = assay: standard in vitro agar dilution MIC (Table I), Klebsiella; details: Table I, agar dilution
Strep. D = assay: standard in vitro agar dilution MIC (Table I), Strep. D
Staph. aureus [1] = assay: standard in vitro agar dilution MIC (Table I), Staph. aureus
H. influ. [2] = assay: standard in vitro agar dilution MIC (Table I), H. influ.
From the text: (§1) The antibacterial activity of several compounds of the invention has been determined in standard in vitro agar dilution assays against a variety of gram positive and gram negative microorganisms. The following Tables present typical minimum inhibitory concentrations (MIC's) in μg/ml for several compounds of the invention when evaluated against the indicated microorganisms. MIC's for several known compounds are also presented for comparison.

Staph. epi [3] = assay: standard in vitro agar dilution MIC (Table I), Staph. epi
E. coli = assay: standard in vitro agar dilution MIC (Table I), E. coli; details: Escherichia coli
Strep. PN = assay: standard in vitro agar dilution MIC (Table I), Strep. PN; details: strain PARK
Strep. A = assay: standard in vitro agar dilution MIC (Table I), Strep. A
H. influ. [4] = assay: Expanded Spectrum MIC (Table II), H. influ.
From the text: as §1

Staph. aureus [5] = assay: Expanded Spectrum MIC (Table II), Staph. aureus
From the text: as §1

Staph. epi [6] = assay: Expanded Spectrum MIC (Table II), Staph. epi
From the text: as §1

[7] = Klebsiella, strain X26, read-out: MIC
[8] = Klebsiella, strain X68, read-out: MIC
[9] = Table I, agar dilution, strain EPI1, read-out: MIC

Measured: MIC

CC1(C)S[C@@H]2[C@H](NC(=O)[C@H](N)c3ccccc3)C(=O)N2[C@H]1C(=O)O [Ampicillin, reference compound]
2 µg/mL: Strep. D; strain 2041, read-out: MIC
8 µg/mL: Staph. epi [3]; [9] | E. coli; strain N10
16 µg/mL: Klebsiella; [7] | Klebsiella; [8] | H. influ. [2]; strain 76
64 µg/mL: Staph. aureus [1]; Staphylococcus aureus, strain S13E
4 µg/mL: Strep. D; strain X66, read-out: MIC | E. coli; strain EC14
0.5 µg/mL: H. influ. [2]; strain C.L.

CC1=C(C(=O)O)N2C(=O)[C@@H](NC(=O)[C@H](N)c3ccccc3)[C@H]2SC1 [Cephalexin, reference compound]
0.5 µg/mL: Strep. A
32 µg/mL: Staph. epi [3]; [9]
8 µg/mL: Klebsiella; [8] | H. influ. [2]; strain 76 | H. influ. [2]; strain C.L. | Staph. epi [3]
4 µg/mL: Klebsiella; [7]
2 µg/mL: Strep. PN; read-out: MIC

CC1=C(C(=O)O)N2C(=O)C(NC(=O)[C@H](N)c3cc4cc(Cl)ccc4s3)C2SC1 (stereo partly drawn) [Ex. 2, D-7-(5-Chloro-2-benzothienyl)glycylamido-3-methyl-3-cephem-4-carboxylic acid]
0.25 µg/mL: Staph. aureus [5]; Staphylococcus aureus, strain S224, read-out: MIC | Staph. aureus [5]; Staphylococcus aureus, strain S225, read-out: MIC | Staph. aureus [5]; Staphylococcus aureus, strain S227, read-out: MIC | Staph. aureus [5]; Staphylococcus aureus, strain S228, read-out: MIC | Staph. aureus [5]; Staphylococcus aureus, strain S230, read-out: MIC | Staph. aureus [5]; Staphylococcus aureus, strain S231, read-out: MIC | Staph. epi [6]; strain 219, read-out: MIC | Staph. epi [6]; strain 286, read-out: MIC
2 µg/mL: H. influ. [2]; strain C.L., read-out: MIC
1 µg/mL: H. influ. [4]; strain 1683, read-out: MIC | Staph. aureus [5]; Staphylococcus aureus, strain S238, read-out: MIC | Staph. epi [6]; strain 269, read-out: MIC | Staph. epi [6]; strain 270, read-out: MIC | Staph. epi [3]; Table I, agar dilution, strain 222, read-out: MIC
0.5 µg/mL: Staph. aureus [5]; Staphylococcus aureus, strain 239, read-out: MIC | Staph. aureus [5]; Staphylococcus aureus, strain S226, read-out: MIC | Staph. aureus [5]; Staphylococcus aureus, strain S229, read-out: MIC | Staph. aureus [5]; Staphylococcus aureus, strain S234, read-out: MIC | Staph. aureus [5]; Staphylococcus aureus, strain S237, read-out: MIC | Strep. PN; read-out: MIC | Staph. aureus [1]; Staphylococcus aureus, strain X1.1, read-out: MIC | Staph. epi [6]; strain 285, read-out: MIC | H. influ. [2]; strain 76, read-out: MIC
32 µg/mL: H. influ. [4]; strain C.L., read-out: MIC | Klebsiella; [7] | Staph. aureus [1]; Staphylococcus aureus, strain V41, read-out: MIC
0.125 µg/mL: Strep. A; Table I, agar dilution, strain C203, read-out: MIC
4 µg/mL: Staph. epi [6]; strain EPI1, read-out: MIC | Staph. epi [3]; [9]
64 µg/mL: Staph. aureus [1]; Staphylococcus aureus, strain X400, read-out: MIC
8 µg/mL: H. influ. [4]; strain 76, read-out: MIC
> 64 µg/mL: H. influ. [4]; strain M366 | H. influ. [4]; strain STEL

CC1=C(C(=O)O)N2C(=O)C(NC(=O)C(N)c3cc4c(s3)CCCC4)C2SC1 [Ex. 5, D-7-[(4,5,6,7-tetrahydro-2-benzothienyl)glycylamido]-3-methyl-3-cephem-4-carboxylic acid]
> 64 µg/mL: H. influ. [4]; strain M366 | H. influ. [4]; strain STEL
2 µg/mL: Klebsiella; strain X26 | Staph. epi [6]; strain 269 | Staph. epi [3]; Table I, agar dilution, strain EPI1
0.06 µg/mL: Strep. A; Table I, agar dilution, strain C203
8 µg/mL: H. influ. [4]; strain 76 | Staph. aureus [1]; strain S13E
64 µg/mL: Staph. aureus [1]; strain X400
16 µg/mL: H. influ. [4]; strain 169 | H. influ. [4]; strain 171 | H. influ. [4]; strain 1930 | H. influ. [4]; strain C.L. | H. influ. [4]; strain HESS | H. influ. [4]; strain R465 | Staph. aureus [1]; strain V41 | H. influ. [2]; strain C.L.
4 µg/mL: H. influ. [4]; strain 105 | H. influ. [4]; strain 158 | H. influ. [4]; strain 164 | H. influ. [4]; strain 312 | H. influ. [4]; strain 1683 | H. influ. [4]; strain 4842 | H. influ. [4]; strain M370 | H. influ. [4]; strain M371 | Staph. epi [6]; strain EPI1 | H. influ. [2]; strain 76
0.5 µg/mL: Staph. aureus [5]; strain 239 | Staph. aureus [5]; strain S224 | Staph. aureus [5]; strain S225 | Staph. aureus [5]; strain S226 | Staph. aureus [5]; strain S227 | Staph. aureus [5]; strain S228 | Staph. aureus [5]; strain S230 | Staph. aureus [5]; strain S237 | Staph. epi [6]; strain 219 | Staph. epi [6]; strain 270 | Staph. epi [3]; Table I, agar dilution, strain 222
0.25 µg/mL: Staph. aureus [5]; strain S231 | Strep. PN | Staph. aureus [1]; strain X1.1 | Staph. epi [6]; strain 286
1 µg/mL: Staph. aureus [5]; strain S229 | Staph. aureus [5]; strain S234 | Staph. aureus [5]; strain S238 | Staph. epi [6]; strain 285
